Results published in article PMC8496750, “Identification of the organic anion transporting polypeptides responsible for the hepatic uptake of the major metabolite of epyrifenacil, S‐3100‐CA, in mice” (Pharmacology Research & Perspectives, 2021).

Key:
mouse Oatp1a4 = target: T1, mouse Oatp1a4 (Mus musculus, UniProt Q9EP96); assay: Uptake assay for radiolabeled substrates, mouse Oatp1a4 expressing 293FT cells; details: 10‐min incubation
T1 sequence (Q9EP96 1-670): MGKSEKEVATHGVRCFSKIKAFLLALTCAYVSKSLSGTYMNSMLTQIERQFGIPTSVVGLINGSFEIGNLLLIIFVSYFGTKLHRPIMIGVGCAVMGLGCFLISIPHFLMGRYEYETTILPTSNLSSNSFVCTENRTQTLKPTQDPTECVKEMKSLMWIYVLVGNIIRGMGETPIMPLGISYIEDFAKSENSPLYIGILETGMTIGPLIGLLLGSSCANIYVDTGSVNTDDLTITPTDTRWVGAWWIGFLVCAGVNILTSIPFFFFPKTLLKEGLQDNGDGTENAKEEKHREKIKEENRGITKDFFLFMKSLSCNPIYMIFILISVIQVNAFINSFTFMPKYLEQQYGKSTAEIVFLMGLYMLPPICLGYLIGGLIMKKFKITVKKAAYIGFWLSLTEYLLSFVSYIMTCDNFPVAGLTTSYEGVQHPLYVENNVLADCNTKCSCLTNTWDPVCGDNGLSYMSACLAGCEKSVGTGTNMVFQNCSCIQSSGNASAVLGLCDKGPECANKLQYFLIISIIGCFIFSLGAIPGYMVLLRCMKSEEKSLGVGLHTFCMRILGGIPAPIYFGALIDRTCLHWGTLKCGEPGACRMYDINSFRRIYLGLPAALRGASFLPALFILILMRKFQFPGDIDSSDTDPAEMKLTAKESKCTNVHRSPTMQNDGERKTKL
Description: (§1) 293FT cells were purchased from Thermo Fisher Scientific, Inc.. The cells were grown in Dulbecco's modified Eagle medium (supplemented with 4.5 g/L glucose and 2 mM L‐glutamine) at 37°C, 5% CO2, and 95% humidity. The cells were passaged 3 times per week by harvesting cells using trypsin and plating at a density of 1.0 × 10^4 cells/cm^2 in a 10 cm cell culture plate for maintenance culture. The 293FT cells were detached using trypsin and re‐seeded at a density of 2.5 × 10^4 cells/cm^2 in BioCoat™ Collagen I 6‐well plates (Corning Inc.) for transfection and then treated with 1.2 μg of plasmid vector and 3.2 μl of Lipofectamine™ 2000 Transfection Reagent (Thermo Fisher Scientific, Inc.) according to the manufacturer's instructions. After a 3‐h treatment, the transfection medium was replaced with a fresh cell culture medium and incubated at 37°C with 95% humidity and 5% CO2 until ready for the assay.
(§2) Transport experiments were conducted approximately 24 h post‐transfection. The experiments were initiated by aspirating culture medium and addition of pre‐warmed radiolabeled substrate solution (final 1.0% of acetonitrile or 0.9% of ethanol in phosphate‐buffered saline (PBS[−])) to each well. After a 10‐min incubation, cells were washed twice with 1 ml of ice‐cold PBS(−) and lysed with 700 μl of 1.0 M NaOH for 3 h or more at room temperature. The lysate was transferred to a 1.5‐ml tube, and neutralized with 350 μl of 2.0 M HCl and 350 μl of 2.0% sodium dodecyl sulfate (SDS) solution. From the lysate, 1.0 ml was transferred to a vial containing 10 ml of Emulsifier Scintillator Plus to measure the radioactivity in the LSC. The protein concentration of the cell lysate was also measured using a Pierce™ BCA Protein Assay Kit (Thermo Fisher Scientific, Inc.), which was used to normalize, according to the cell number, the radioactivity in the cell lysate extract. The protein assay was performed in duplicate. Each sample type was assayed in triplicate wells, and each run was performed twice. When the difference in mean uptake between OATP expressing cells and mock cells was more than 2 times, the OATP was judged to be involved in transportation of the substrate. […] Each sample type was assayed in triplicate wells.

rat Oatp1a1 = target: T2, rat Oatp1a1 (Rattus norvegicus, UniProt P46720); assay: Uptake assay for radiolabeled substrates, rat Oatp1a1 expressing 293FT cells; type: in vitro ADME; details: for Ratio of uptake amount relative to the uptake into mock cells: 10‐min incubation
T2 construct: expressed in transfected cells; host or cells: 293FT cells
T2 sequence (P46720 1-670): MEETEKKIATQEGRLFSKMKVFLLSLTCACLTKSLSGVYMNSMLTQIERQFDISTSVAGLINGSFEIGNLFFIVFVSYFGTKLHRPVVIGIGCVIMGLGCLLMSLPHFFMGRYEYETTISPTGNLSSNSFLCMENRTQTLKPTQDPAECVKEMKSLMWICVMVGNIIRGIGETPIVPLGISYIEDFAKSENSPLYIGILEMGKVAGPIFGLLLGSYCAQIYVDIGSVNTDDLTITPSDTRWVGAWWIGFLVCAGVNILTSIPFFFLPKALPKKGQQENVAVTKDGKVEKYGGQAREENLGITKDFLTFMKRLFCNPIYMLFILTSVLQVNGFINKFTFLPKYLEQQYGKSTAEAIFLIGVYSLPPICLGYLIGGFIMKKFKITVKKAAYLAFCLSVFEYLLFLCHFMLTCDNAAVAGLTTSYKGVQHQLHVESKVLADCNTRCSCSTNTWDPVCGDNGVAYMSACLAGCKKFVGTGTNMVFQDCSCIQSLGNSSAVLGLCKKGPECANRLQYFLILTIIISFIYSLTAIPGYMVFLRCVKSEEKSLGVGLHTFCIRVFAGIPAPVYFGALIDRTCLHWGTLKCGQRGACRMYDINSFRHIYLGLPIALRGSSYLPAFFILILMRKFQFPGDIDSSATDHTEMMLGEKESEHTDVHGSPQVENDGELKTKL
Description: as §1, §2

rat Oatp1b2 = target: T3, rat Oatp1b2 (Rattus norvegicus, UniProt Q9QZX8); assay: Uptake assay for radiolabeled substrates, rat Oatp1b2 expressing 293FT cells; details: 10‐min incubation
T3 sequence (Q9QZX8 1-687): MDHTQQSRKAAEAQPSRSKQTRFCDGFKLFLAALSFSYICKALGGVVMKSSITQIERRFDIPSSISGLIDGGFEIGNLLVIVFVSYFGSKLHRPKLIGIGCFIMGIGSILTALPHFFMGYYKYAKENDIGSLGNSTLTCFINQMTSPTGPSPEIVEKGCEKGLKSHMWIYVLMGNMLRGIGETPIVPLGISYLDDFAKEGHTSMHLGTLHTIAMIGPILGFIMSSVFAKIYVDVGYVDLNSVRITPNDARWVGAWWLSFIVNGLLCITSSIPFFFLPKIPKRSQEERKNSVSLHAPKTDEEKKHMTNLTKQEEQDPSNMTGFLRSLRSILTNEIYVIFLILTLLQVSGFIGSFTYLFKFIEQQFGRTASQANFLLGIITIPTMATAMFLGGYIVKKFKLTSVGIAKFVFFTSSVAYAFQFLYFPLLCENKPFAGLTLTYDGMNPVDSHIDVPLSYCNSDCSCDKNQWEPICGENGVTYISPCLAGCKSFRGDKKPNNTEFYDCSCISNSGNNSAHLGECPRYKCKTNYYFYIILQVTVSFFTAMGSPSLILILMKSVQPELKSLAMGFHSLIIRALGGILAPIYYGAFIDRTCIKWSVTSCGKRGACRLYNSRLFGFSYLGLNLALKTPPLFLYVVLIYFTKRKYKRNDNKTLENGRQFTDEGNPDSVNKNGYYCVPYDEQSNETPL
Description: as §1, §2

Row | SMILES | Ratio of uptake amount relative to the uptake into mock cells (mouse Oatp1a4; Run_1) | Ratio of uptake amount relative to the uptake into mock cells (mouse Oatp1a4; Run_2) | Ratio of uptake amount relative to the uptake into mock cells (rat Oatp1a1; Run_1) | Ratio of uptake amount relative to the uptake into mock cells (rat Oatp1a1; Run_2) | Ratio of uptake amount relative to the uptake into mock cells (rat Oatp1b2; Run_1) | Ratio of uptake amount relative to the uptake into mock cells (rat Oatp1b2; Run_2) | Uptake, times higher than in mock cells (rat Oatp1a1) [times]
1 | Cn1c(C(F)(F)F)cc(=O)n(-c2cc(Oc3cccnc3OCC(=O)O)c(Cl)cc2F)c1=O [S‐3100‐CA] | 8.1 | 4.2 | 11.7 | 8.7 | 6.6 | 8.4 | –
2 | C[C@]12CC[C@@H]3c4ccc(O)cc4CC[C@H]3[C@@H]1CC[C@@H]2O[C@@H]1O[C@H](C(=O)O)[C@@H](O)[C@H](O)[C@H]1O [E217βG, Estradiol 17β‐D‐glucuronide] | 3.7 | 3.3 | 59.1 | 65.4 | 27.4 | 43.2 | > 50
3 | C[C@]12CC[C@@H]3c4ccc(OS(=O)(=O)O)cc4CC[C@H]3[C@@H]1CCC2=O [E3S, Estrone 3‐sulfate] | 1.1 | 1.1 | 28.6 | 13.6 | 10.0 | 4.7 | –
